Assay results as given in the supplement of paper PMC4862054.

Assays:
Conditions in all cases: incubation time: 72 h
CAL-148 [1] = test: normalised viability (% of control), CellTiter-Blue; higher = more viable cells (about 100 = DMSO control)
Outline: (§1)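 Breast cancer cell lines were treated for 72 h in 384-well format and measured by CellTiter-Blue fluorescence at 560/590 nm. Results were normalised per plate to vehicle (100) and a positive kill control (0). The entry is normalised viability at a single listed concentration of the series.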

CAL-51 [2] = test: as above
Outline: as §1

HCC1143 [3] = test: as above
Outline: as §1

HCC1937 [4] = test: as above
Outline: as §1

HDQ-P1 [5] = test: as above
Outline: as §1

BT-474 = test: drug sensitivity score (DSS), CellTiter-Glo (DSS (AUC-based score)); higher = stronger drug effect (viability inhibition or cytotoxicity); extreme values may be limits of the assay
Outline: (§2)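 Normalisation on every plate relied on 0.1 % DMSO and a positive kill control. The plates, 384-well format, held compound at 5 concentrations 10-fold apart across a compound-specific 10,000-fold range, and breast cancer cell lines in 20 µl suspension were incubated on them for 72 h before CellTox Green and then CellTiter-Glo readings. The drug sensitivity score derives from the area under the fitted dose-response curve.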

BT-549 = test: as above
Outline: as §2

CAL-120 [6] = test: as above
Outline: as §2

CAL-148 [7] = test: as above
Outline: as §2

CAL-51 [8] = test: as above
Outline: as §2

CAL-85-1 = test: as above
Outline: as §2

DU-4475 = test: as above
Outline: as §2

HCC1143 [9] = test: as above
Outline: as §2

HCC1599 = test: as above
Outline: as §2

HCC1937 [10] = test: as above
Outline: as §2

HDQ-P1 [11] = test: as above
Outline: as §2

Hs578T = test: as above
Outline: as §2

MCF-10A = test: as above
Outline: as §2

MDA-MB-231 = test: as above
Outline: as §2

MDA-MB-436 = test: as above
Outline: as §2

MDA-MB-453 = test: as above
Outline: as §2

MDA-MB-468 = test: as above
Outline: as §2

MFM-223 = test: as above
Outline: as §2

SK-BR-3 = test: as above
Outline: as §2

CAL-120 [12] = test: drug sensitivity score (DSS), CellTox Green (DSS (AUC-based score)); higher = stronger drug effect (viability inhibition or cytotoxicity); extreme values may be limits of the assay
Outline: as §2

CAL-148 [13] = test: as above
Outline: as §2

Question: How did the normalised viability (CAL-148 [1]; 10 nM) turn out when COCC1(CO)C(=O)C2CCN1CC2 (stereo not drawn) [Prima-1 Met] was run?
Answer: 90.2%

Question: And the normalised viability (CAL-51 [2]; 10 nM)?
Answer: 93.9%

Question: What about the normalised viability (HCC1143 [3]; 100 nM) of the same compound?
Answer: 74.8%

Question: And the normalised viability (HCC1937 [4]; 100 nM)?
Answer: 118%

Question: And the normalised viability (HDQ-P1 [5]; 10 nM)?
Answer: 91.2%

Question: And the drug sensitivity score (BT-474)?
Answer: 0

Question: What about the drug sensitivity score (BT-549) of the same compound?
Answer: 2.79

Question: And the drug sensitivity score (CAL-120 [6])?
Answer: 0

Question: And the drug sensitivity score (CAL-148 [7])?
Answer: 0

Question: What about the drug sensitivity score (CAL-51 [8]) of the same compound?
Answer: 0

Question: And the drug sensitivity score (CAL-85-1)?
Answer: 0

Question: And the drug sensitivity score (DU-4475)?
Answer: 0

Question: What about the drug sensitivity score (HCC1143 [9]) of the same compound?
Answer: 0

Question: And the drug sensitivity score (HCC1599)?
Answer: 0

Question: And the drug sensitivity score (HCC1937 [10])?
Answer: 0

Question: What about the drug sensitivity score (HDQ-P1 [11]) of the same compound?
Answer: 0

Question: And the drug sensitivity score (Hs578T)?
Answer: 0

Question: What about the drug sensitivity score (MCF-10A) of the same compound?
Answer: 0

Question: What about the drug sensitivity score (MDA-MB-231) of the same compound?
Answer: 0

Question: And the drug sensitivity score (MDA-MB-436)?
Answer: 0

Question: What about the drug sensitivity score (MDA-MB-453) of the same compound?
Answer: 0

Question: What about the drug sensitivity score (MDA-MB-468) of the same compound?
Answer: 0

Question: And the drug sensitivity score (MFM-223)?
Answer: 0

Question: And the drug sensitivity score (SK-BR-3)?
Answer: 0

Question: What about the drug sensitivity score (CAL-120 [12]) of the same compound?
Answer: 0

Question: What about the drug sensitivity score (CAL-148 [13]) of the same compound?
Answer: 0

Question: Which normalised viability (CAL-148 [1]; 40 nM) does the source give for O=P1(N(CCCl)CCCl)NCCCO1 (stereo not drawn) [Cyclophosphamide] here?
Answer: 103%

Question: What about the normalised viability (CAL-51 [2]; 40 nM) of the same compound?
Answer: 107%

Question: And the normalised viability (HCC1143 [3]; 400 nM)?
Answer: 90.2%

Question: What about the normalised viability (HCC1937 [4]; 400 nM) of the same compound?
Answer: 99.8%

Question: And the normalised viability (HDQ-P1 [5]; 40 nM)?
Answer: 97.9%

Question: And the drug sensitivity score (BT-474)?
Answer: 0

Question: What about the drug sensitivity score (BT-549) of the same compound?
Answer: 0

Question: And the drug sensitivity score (CAL-120 [6])?
Answer: 0

Question: What about the drug sensitivity score (CAL-148 [7]) of the same compound?
Answer: 0

Question: What about the drug sensitivity score (CAL-51 [8]) of the same compound?
Answer: 0

Question: And the drug sensitivity score (CAL-85-1)?
Answer: 0

Question: And the drug sensitivity score (DU-4475)?
Answer: 0

Question: And the drug sensitivity score (HCC1143 [9])?
Answer: 0

Question: And the drug sensitivity score (HCC1599)?
Answer: 0

Question: What about the drug sensitivity score (HCC1937 [10]) of the same compound?
Answer: 0

Question: And the drug sensitivity score (HDQ-P1 [11])?
Answer: 0

Question: What about the drug sensitivity score (Hs578T) of the same compound?
Answer: 0

Question: What about the drug sensitivity score (MCF-10A) of the same compound?
Answer: 0

Question: What about the drug sensitivity score (MDA-MB-231) of the same compound?
Answer: 0

Question: And the drug sensitivity score (MDA-MB-436)?
Answer: 0

Question: What about the drug sensitivity score (MDA-MB-453) of the same compound?
Answer: 0

Question: What about the drug sensitivity score (MDA-MB-468) of the same compound?
Answer: 0

Question: And the drug sensitivity score (MFM-223)?
Answer: 0

Question: And the drug sensitivity score (SK-BR-3)?
Answer: 0

Question: What about the drug sensitivity score (CAL-120 [12]) of the same compound?
Answer: 0

Question: What about the drug sensitivity score (CAL-148 [13]) of the same compound?
Answer: 0

Question: Which results are given for NC(=O)c1ccc(I)c([N+](=O)[O-])c1 [Iniparib]?
Answer: normalised viability (CAL-148 [1]; 10 nM): 96.3%; normalised viability (CAL-51 [2]; 10 nM): 93%; normalised viability (HCC1143 [3]; 100 nM): 86.8%; normalised viability (HCC1937 [4]; 100 nM): 109%; normalised viability (HDQ-P1 [5]; 10 nM): 108%; drug sensitivity score (BT-474): 0; drug sensitivity score (BT-549): 0; drug sensitivity score (CAL-120 [6]): 0; drug sensitivity score (CAL-148 [7]): 0; drug sensitivity score (CAL-51 [8]): 0; drug sensitivity score (CAL-85-1): 0; drug sensitivity score (DU-4475): 0; drug sensitivity score (HCC1143 [9]): 0; drug sensitivity score (HCC1599): 0; drug sensitivity score (HCC1937 [10]): 0; drug sensitivity score (HDQ-P1 [11]): 0; drug sensitivity score (Hs578T): 0; drug sensitivity score (MCF-10A): 0; drug sensitivity score (MDA-MB-231): 0; drug sensitivity score (MDA-MB-436): 3.5; drug sensitivity score (MDA-MB-453): 0; drug sensitivity score (MDA-MB-468): 3.75; drug sensitivity score (MFM-223): 0; drug sensitivity score (SK-BR-3): 0; drug sensitivity score (CAL-120 [12]): 0.0859; drug sensitivity score (CAL-148 [13]): 0
